In patent publication US9358226B2, “Triarylmethane analogs and their use in treating cancers” (Emory University, priority 2007, dated 2016):

Experiments:
[1] = target: T1, Nox4 (Homo sapiens, UniProt Q9NPH5); test: H2O2 production, homovanillic acid assay, HEK293 Nox4-11 cells; format: cell-based; details: 1 hour 37° C.
T1 construct: expressed in transfected cells; host or cells: HEK293 Nox4-11 cells
T1 sequence (Q9NPH5 1-578): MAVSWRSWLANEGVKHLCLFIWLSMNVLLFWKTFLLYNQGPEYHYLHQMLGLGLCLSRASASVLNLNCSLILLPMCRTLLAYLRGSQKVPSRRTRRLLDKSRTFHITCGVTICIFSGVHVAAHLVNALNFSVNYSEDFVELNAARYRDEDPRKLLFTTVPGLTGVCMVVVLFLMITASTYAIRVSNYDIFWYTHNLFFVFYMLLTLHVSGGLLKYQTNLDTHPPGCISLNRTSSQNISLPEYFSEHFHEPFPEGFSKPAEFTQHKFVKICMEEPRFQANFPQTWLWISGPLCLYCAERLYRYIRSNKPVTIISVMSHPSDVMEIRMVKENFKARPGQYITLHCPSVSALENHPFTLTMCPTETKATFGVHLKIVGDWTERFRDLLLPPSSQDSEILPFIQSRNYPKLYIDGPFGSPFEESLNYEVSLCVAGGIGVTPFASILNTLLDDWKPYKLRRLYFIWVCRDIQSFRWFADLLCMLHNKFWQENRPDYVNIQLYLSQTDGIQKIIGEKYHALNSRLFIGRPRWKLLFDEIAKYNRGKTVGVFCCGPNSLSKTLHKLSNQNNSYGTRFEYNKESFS
T1 sequence (P13498 2-195 partner limits assumed): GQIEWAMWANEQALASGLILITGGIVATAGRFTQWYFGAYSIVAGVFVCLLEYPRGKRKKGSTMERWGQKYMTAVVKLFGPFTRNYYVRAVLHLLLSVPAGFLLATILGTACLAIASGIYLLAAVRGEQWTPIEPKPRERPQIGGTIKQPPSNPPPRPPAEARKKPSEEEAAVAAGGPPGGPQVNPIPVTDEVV
Protocol: After 1 hour incubation at 37° C., the reaction was stopped and H2O2 production was measured using the homovanillic acid assay. The ability of these drugs to inhibit production of H2O2 is shown as a percentage relative to the untreated control (100%). […] Optimal Nox2 activity requires phorbol 12-myristate 13-acetate stimulation whereas Nox4 activity is constitutive.
H2O2 release was measured using the homovanillic acid assay as described previously (Martyn, 2006). Briefly, 1.5-1.75×10^5 cells/well of a 12-well plate were seeded. The following day, cells were washed once with Hank's balanced salt solution and then preincubated for 15 minutes with either gentian violet (10-20 nM) or brilliant green (0.5-1.0 μM) in 1 ml of media. The cells were then washed once with Hank's balanced salt solution. Gentian violet or brilliant green was added at the same concentrations as in pretreatment to 0.5 ml of homovanillic acid assay solution (100 μM homovanillic acid assay, 4 U/ml horseradish peroxidase in Hank's balanced salt solution with Ca^2+ and Mg^2+) and incubated with the cells for 1 hour at 37° C. Cos-phox cells were additionally stimulated with 0.4 μg/ml phorbol 12-myristate 13-acetate. […] Fluorescence was read on a BioTek Synergy HT (BioTek Instruments Inc., Winooski, Vermont, […].) with an excitation of 320 nm and emission of 440 nm.

[2] = test system: bloodstream form of T. brucei; test: Bloodstream form of T. brucei, live cells, overnight treatment; format: cell-based
Protocol: These and other compounds were tested on live cells.
The experiment was conducted with one million cells of the bloodstream form of T. brucei. After over night treatment with different compounds (at concentrations of 50 and 100 μmolar), cells were counted and plotted with controls.

[3] = test system: P. falciparum D6 (Chloroquine Sensitive); test: Malaria model, chloroquine sensitive P. falciparum; format: cell-based; details: Plasmodium falciparum, D6; read-out: IC50 (nM) vs P. falciparum D6 (Chloroquine Sensitive)
Protocol: The compounds were tested in a malaria model using both chloroquine sensitive and multidrug resistant P. falciparum. The malaria model was the same as published in JAC Advance Access published online on Jul. 30, 2008, Journal of Antimicrobial Chemotherapy, doi:10.1093/jac/dkn315, the contents of which are hereby incorporated by reference, and the data is summarized in the table below.
Briefly, the assay involves exposing both chloroquine sensitive and multidrug resistant P. falciparum to the compounds. After one hour of exposure to the highest concentration of the compound, followed by removal of the compound, the growth of all stages of P. falciparum was observed. The reduction in the growth stages was then compared with untreated control parasites. […] The presence of strong inhibition (defined herein as 10% growth) of all parasite stages was evaluated when the parasites were exposed to various concentrations of various compounds.

[4] = test system: bEnd.3 hemangiomas; test: bEnd.3 hemangioma in vivo, intralesional treatment
Protocol: In order to determine if compounds that inhibit ang-2 formation in vitro would ameliorate hemangioma formation in vivo, we injected one million bEnd.3 cells subcutaneously into nine nude mice.
For each treatment condition, three mice were injected with 1,000,000 bEnd.3 cells and received intralesional injection with either vehicle control, brilliant green or gentian viol et (from left to right in photo) on days 9 and 14. Animals were euthanized on day 20, secondary to tumor burden in the control animals.
For each treatment condition, three mice were subcutaneously injected with one million bEnd.3 cells and monitored for tumor development. On day 9, tumors were measured in all nine animals, and there was no significant difference in tumor volume before the initiation of treatment. Each mouse then received intralesional injection with either 0.33 ml vehicle control, brilliant green (5 mg/kg, dissolved in […] ethanol and 900 μl intralipid) or gentian violet (5 mg/kg, dissolved in 100 μl ethanol and 900 μl intralipid) on days 9 and 14. No toxicity was noted following injection. Animals were euthanized on day 20, secondary to tumor burden in the control animals. Photos represent average tumor burden in each of the three groups (FIG. 3a), and tumor volume (mm^3) is graphically depicted (FIG. 3b). Error bars represent the standard error of the mean.

inhibition of Nox4 activity (H2O2 production) [1]: inhibited
IC50 [3]: 12.1 nM
SMILES: CN(C)c1ccc(C(=C2C=CC(=[N+](C)C)C=C2)c2ccc(N(C)C)cc2)cc1 [Gentian Violet (GV), hexamethyl pararosaniline chloride]
IC50 ([2]; Trypanosoma brucei, bloodstream form of T. brucei): < 0.02 µM
cell survival after over night treatment ([2]; one million cells, 50 and 100 μmolar): All cells died
decrease in tumor size compared to control ([4]; 5 mg/kg intralesional on days 9 and 14, euthanized day 20): 92.6%
toxicity as a result of treatment ([4]; mouse, in vivo, 5 mg/kg): Neither local nor systemic toxicity was observed
